Results reported in patent publication US20260257987A1, “COMPOUNDS AND METHOD FOR UPREGULATION OF P53 THROUGH INDUCTION OF MDM2 DEGRADATION” (Georgia State University Research Foundation, Inc., priority 2022, published 2026).

Tests used:
[1] = Thiol (NAC) reactivity study by HPLC; format: physicochemical
Method: HPLC was performed on Shimadzu LC-20AT HPLC system. Condition: mobile phase A: water with 0.05% TFA; B: acetonitrile with 0.05% TFA; gradient: 5-95% B, 0-10 min; […]; 5% B 12.1-15 min. Column: C18, 3.5 μm, 4.6×150 mm; UV detector monitored at 254 nm. For the thiol reactivity assay, a 0.3 mM solution of AQ-analogs was prepared in 0.5 mL PBS: MeOH (80:20) and warmed at 37° C. Next, 25 μL of NAC (from 30 mM stock solution in PBS) was added to the above solution. The resultant solution had final concentrations of 0.3 mM AQ-analogs and 1.5 mM NAC. 20 μL of the reaction mixture was injected into the HPLC at the designated time intervals. The area percentage values were determined via the integration of the area under the curve (AUC) of the chromatogram.

[2] = system: RS4;11 cells (wild-type p53); assay: Cytotoxicity test of BW-AQ-365 (CCK-8) in RS4;11 cells; format: cell-based; conditions: for IC50: Homo sapiens, RS4
Method: Cell viability was assessed by using Cell Counting Kit-8 (CCK-8, Dojindo, Japan). RS4;11 cells (wild-type p53) were cultured in RPMI-1640 medium (Corning, USA). The culture mediums were supplemented with 10% fetal bovine serum (Corning, USA) and 100 unit/ml penicillin, and […] streptomycin. […] Compounds were dissolved in DMSO (molecular biology grade, Sigma-Aldrich, USA) to make 10 mM stock solutions, which were serially diluted with the culture medium to various concentrations (final DMSO concentration=0.5%). A culture medium (50 μL) containing BW-AQ-365 was added directly to the cell suspension in each well immediately after seeding. After incubation for 24-72 h at 37° C. in a humidified atmosphere with 5% CO2, 10 μL of CCK-8 solution was added to each well, and the plate was incubated for an additional 2-4 h at 37° C. before measuring the optical density at 450 nm with a microplate reader (PerkinElmer Victor 2, USA). The cell viability of each well was calculated as the percentage of the untreated control according to the manufacturer's manual. All tests were performed in triplicates, and IC50 values were determined by non-linear regression using GraphPad Prism 9.0.

[3] = system: EU-1 (in-house cell line); assay: Cytotoxicity test of BW-AQ-365 (CCK-8) in EU-1 cells; format: cell-based; conditions: EU-1, 25000 cells/well, 24 h
[4] = system: MDM2 level in RS4;11 cells; assay: Preliminary study of MDM2 level in RS4;11 cells; format: cell-based

## CC(=O)CCCOc1cccc2c1C(=O)c1c(OCCCC(C)=O)cc(NC(=O)CN=[N+]=[N-])cc1C2=O [BW-AQ-365, 2-azido-N-(9,10-dioxo-4,5-bis ((4-oxopentyl)oxy)-9,10-dihydroanthracen-2-yl)acetamide]
[1]
  reactivity towards thiol, in words: less reactivity towards thiol
[2]; RS4-11, 48 h, 11, 10000 cells/well, 48 h
  IC50: 190 ± 10 nM
[2]; RS4-11, 48 h, 11, 25000 cells/well, 48 h
  IC50: 610 ± 30 nM
[2]; RS4-11, 72 h, 11, 25000 cells/well, 72 h
  IC50: 5500 ± 320 nM
[2]; RS4;11 cells
  anticancer activity in RS4;11 cells compared with BW-AQ-295: more potent than BW-AQ-295
[3]
  IC50: 1550 ± 440 nM
[4]
  MDM2 level in RS4;11 cells: dose-dependently decrease MDM2 level
